# Measured values as given in article PMC6272903, “Synthesis and Structure-Activity Relationship Analysis of 5-HT7 Receptor Antagonists: Piperazin-1-yl Substituted Unfused Heterobiaryls” (Molecules, 2016).
# Values joined by “and” are separate entries in the source; they are usually repeats but may differ in a detail not shown here. Identical values can stand only once. Counter-ions that a name gives are not always drawn.
# How the values were obtained:
# 5-HT2A = molecular target: T1, 5-HT2A (Homo sapiens, UniProt P28223); assay: 5-HT2A competition binding assay ([3H]-Ketanserin); conditions: CHO cells with overexpressed receptor, read-out: Ki ± S.D. 5-HT2A
# T1 construct: expressed in transfected cells; host or cells: CHO
# dopaminergic D2 = molecular target: T2, dopaminergic D2 (Homo sapiens, UniProt P14416); assay: D2 competition binding assay ([3H]-Raclopride); conditions: for Ki: [3H]-Raclopride, HEK293 cells with overexpressed receptor, read-out: Ki ± S.D. D2
# T2 construct: expressed in transfected cells; host or cells: HEK293
# 5-HT1A = molecular target: T3, 5-HT1A (Homo sapiens, UniProt P08908); assay: 5-HT1A competition binding assay ([3H]-8-OH-DPAT); conditions: HEK293 cells with overexpressed receptor, read-out: Ki ± S.D. 5-HT1A
# T3 construct: expressed in transfected cells; host or cells: HEK293
# T3 sequence (P08908 1-422): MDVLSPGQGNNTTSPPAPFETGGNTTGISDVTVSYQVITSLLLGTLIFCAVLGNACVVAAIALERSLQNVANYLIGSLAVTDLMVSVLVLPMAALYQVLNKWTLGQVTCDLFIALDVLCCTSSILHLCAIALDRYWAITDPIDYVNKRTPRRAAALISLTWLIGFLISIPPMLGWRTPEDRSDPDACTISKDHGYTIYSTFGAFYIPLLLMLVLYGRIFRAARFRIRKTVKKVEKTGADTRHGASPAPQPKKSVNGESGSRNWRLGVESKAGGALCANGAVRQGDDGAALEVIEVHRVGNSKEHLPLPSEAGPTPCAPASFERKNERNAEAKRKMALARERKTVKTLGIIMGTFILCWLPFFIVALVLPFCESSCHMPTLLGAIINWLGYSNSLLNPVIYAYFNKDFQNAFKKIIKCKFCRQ
# 5-HT6 = molecular target: T4, 5-HT6 (Homo sapiens, UniProt P50406); assay: 5-HT6 competition binding assay ([3H]-LSD); conditions: for Ki: [3H]-LSD, HEK293 cells with overexpressed receptor, read-out: Ki ± S.D. 5-HT6
# T4 construct: expressed in transfected cells; host or cells: HEK293
# 5-HT7R = molecular target: T5, 5-HT7R (Homo sapiens, UniProt P34969); assay: cAMP functional test: inhibition of cAMP production induced by 5-CT (10 nM); assay type: cell-based; conditions: for Kb: cAMP production induced by 5-CT (10 nM), HEK-293 cells expressing 5-HT7R, read-out: KB (5-HT7R antagonistic properties); for effect on 5-CT-induced cAMP accumulation: transfected HEK cells expressing 5-HT7R, 5-CT (10 nM)
# T5 construct: expressed in transfected cells; host or cells: HEK293
# human 5-HT7b receptors = molecular target: T6, human 5-HT7b receptors (Homo sapiens, UniProt P34969); assay: 5-HT7 competition radioligand binding assay ([3H]5-CT); conditions: HEK293 cells overexpressing human 5-HT7b receptors, at least two independent experiments in triplicate; for Ki: read-out: Ki ± S.D. 5-HT7 binding affinity
# T6 construct: expressed in transfected cells; host or cells: HEK293
# Protocol: Novel scaffold endowed with 5-HT7R activity was identified by screening of the in-house compound library in a single compound concentration of 1 µM in a competition radioligand binding assay using [^3H]5-CT and HEK293 cells overexpressing the human 5-HT7b receptors.
# T4 sequence (P50406 whole entry, species assumed): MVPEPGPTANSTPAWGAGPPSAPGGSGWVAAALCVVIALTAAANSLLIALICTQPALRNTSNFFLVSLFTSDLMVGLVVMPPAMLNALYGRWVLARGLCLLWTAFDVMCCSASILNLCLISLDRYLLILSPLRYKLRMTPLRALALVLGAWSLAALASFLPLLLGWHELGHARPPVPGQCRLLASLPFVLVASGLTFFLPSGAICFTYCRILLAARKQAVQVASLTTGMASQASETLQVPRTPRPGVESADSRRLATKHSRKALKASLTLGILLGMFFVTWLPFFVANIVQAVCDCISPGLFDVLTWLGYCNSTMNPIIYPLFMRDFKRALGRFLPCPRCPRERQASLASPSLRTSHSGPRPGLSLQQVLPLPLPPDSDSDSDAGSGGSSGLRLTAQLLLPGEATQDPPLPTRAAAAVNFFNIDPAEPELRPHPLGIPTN
# T1 sequence (P28223 whole entry, species assumed): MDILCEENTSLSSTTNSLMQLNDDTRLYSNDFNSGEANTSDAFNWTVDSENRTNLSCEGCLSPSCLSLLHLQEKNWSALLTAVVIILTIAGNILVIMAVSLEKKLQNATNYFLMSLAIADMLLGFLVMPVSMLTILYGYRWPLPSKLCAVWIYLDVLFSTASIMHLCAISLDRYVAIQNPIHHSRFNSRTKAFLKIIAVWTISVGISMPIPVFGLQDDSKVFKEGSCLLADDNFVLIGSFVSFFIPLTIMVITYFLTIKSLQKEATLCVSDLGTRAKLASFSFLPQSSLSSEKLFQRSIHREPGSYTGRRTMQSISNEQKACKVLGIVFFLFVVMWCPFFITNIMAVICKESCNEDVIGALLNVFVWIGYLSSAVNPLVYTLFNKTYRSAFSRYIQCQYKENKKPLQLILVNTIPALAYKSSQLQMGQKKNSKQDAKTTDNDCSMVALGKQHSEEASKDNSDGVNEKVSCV
# T5 sequence (P34969 1-432): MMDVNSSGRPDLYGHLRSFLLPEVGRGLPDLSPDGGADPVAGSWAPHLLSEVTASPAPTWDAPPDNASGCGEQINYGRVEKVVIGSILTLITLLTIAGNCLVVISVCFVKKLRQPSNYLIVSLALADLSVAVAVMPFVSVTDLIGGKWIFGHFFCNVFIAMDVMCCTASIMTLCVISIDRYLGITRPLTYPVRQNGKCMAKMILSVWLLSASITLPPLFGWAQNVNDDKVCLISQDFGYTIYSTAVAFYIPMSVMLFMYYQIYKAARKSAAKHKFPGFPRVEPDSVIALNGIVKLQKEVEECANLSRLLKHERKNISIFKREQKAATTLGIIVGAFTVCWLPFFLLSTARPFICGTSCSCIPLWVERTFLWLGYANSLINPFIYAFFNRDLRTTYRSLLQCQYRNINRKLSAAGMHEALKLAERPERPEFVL
# T6 sequence (P34969 1-432): as above
# T2 sequence (P14416 whole entry): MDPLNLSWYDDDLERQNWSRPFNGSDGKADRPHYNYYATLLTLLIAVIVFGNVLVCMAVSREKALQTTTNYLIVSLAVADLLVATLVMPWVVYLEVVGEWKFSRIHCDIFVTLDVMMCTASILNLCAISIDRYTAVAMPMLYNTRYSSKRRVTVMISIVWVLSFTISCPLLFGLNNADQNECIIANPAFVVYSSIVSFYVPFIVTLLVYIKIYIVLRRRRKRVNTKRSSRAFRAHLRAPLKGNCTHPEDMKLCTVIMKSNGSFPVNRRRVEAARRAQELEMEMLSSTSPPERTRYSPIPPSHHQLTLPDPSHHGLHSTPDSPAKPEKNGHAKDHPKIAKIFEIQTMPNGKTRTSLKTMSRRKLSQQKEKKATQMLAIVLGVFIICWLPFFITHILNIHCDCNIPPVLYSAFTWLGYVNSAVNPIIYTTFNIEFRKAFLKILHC
smiles,measurement,setting,value
"CN1CCN(c2nccc(-c3cc4ccccc4s3)n2)CC1 (as salt: hydrobromid) [Compound 37, 4-(Benzothiophen-2-yl)-2-(4-methylpiperazin-1-yl)pyrimidine]",melting point,,299 to 300 °C
"CN1CCCN(c2nccc(-c3ccoc3)n2)CC1 (as salt: hydrobromid) [Compound 42, 4-(3-Furyl)-2-(4-methylhomopiperazin-1-yl)pyrimidine]",melting point,,176 to 177 °C
"c1cc(-c2ccoc2)nc(N2CCCCC2)n1 (as salt: hydrobromid) [Compound 43, 4-(3-Furyl)-2-(piperidin-1-yl)pyrimidine]",melting point,,190 to 191 °C
"c1cc(-c2ccoc2)nc(NCCCc2ncc[nH]2)n1 (as salt: hydrobromid) [Compound 46, 4-(3-Furyl)-N-[3-(1H-imidazol-2-yl)propyl]pyrimidin-2-amine]",melting point,,234 to 236 °C
"Cc1cc(-c2cccs2)cc(N2CCN(C)CC2)n1 (as salt: hydrobromid) [Compound 56, 2-Methyl-6-(4-methylpiperazin-1-yl)-4-(2-thienyl)pyridine]",melting point,,132 to 134 °C
"CN1CCN(c2nc(-c3ccoc3)cc(C(F)(F)F)n2)CC1 (as salt: hydrochloride) [Compound 16, 4-(3-Furyl)-2-(4-methylpiperazin-1-yl)-6-(trifluoromethyl)pyrimidine]",melting point,,> 300 °C
"c1cc(-c2ccoc2)nc(N2CC[N+]3(CCOCC3)CC2)n1 (as salt: iodide) [Compound 47, 4-[4-(3-Furyl)pyrimidin-2-yl]piperazine-1-spiro-1-morpholinium iodide]",melting point,,> 200 °C (dec.)
"CCc1cc(-c2ccoc2)nc(N2CCN(C)CC2)n1 [Compound 12, 4-Ethyl-6-(3-furyl)-2-(4-methylpiperazin-1-yl)pyrimidine]",Ki,5-HT2A,10 nM and 12 nM
same,Ki,dopaminergic D2,466 ± 39 nM
same,Ki,5-HT1A,1500 ± 164 nM
same,Ki,5-HT6,121 ± 14 nM
same,Kb,5-HT7R,12 nM
same,effect on 5-CT-induced cAMP accumulation,5-HT7R,dose-dependently decrease
same,Ki,human 5-HT7b receptors,7.1 ± 1.4 nM
"CCCCc1cc(-c2ccoc2)nc(N2CCN(C)CC2)n1 [Compound 13, 4-(n-Butyl)-6-(3-furyl)-2-(4-methylpiperazin-1-yl)pyrimidine]",Ki,5-HT2A,12 nM and 10 nM
same,fold more active than 12 at D2 receptors,dopaminergic D2; 13 versus 12,13 fold
same,Ki,dopaminergic D2,37 ± 4 nM
same,Ki,5-HT1A,637 ± 53 nM
same,fold more active than 12 at 5-HT6,5-HT6; 13 versus 12,10 fold
same,Ki,5-HT6,12 ± 2 nM
same,Kb,5-HT7R,60 nM
same,effect on 5-CT-induced cAMP accumulation,5-HT7R,dose-dependently decrease
same,Ki,human 5-HT7b receptors,1.6 ± 0.2 nM
c1cc(-c2ccoc2)nc(N2CCOCC2)n1 [Compound 44],melting point,,58 to 59 °C
same,Ki ± S.D. 5-HT7 binding affinity,human 5-HT7b receptors,no affinity
same,Ki,human 5-HT7b receptors,> 10000 nM
"CC1CCN(CC[C@H]2CCCN2S(=O)(=O)c2cccc(O)c2)CC1 [SB-269970, (2R)-1-((3-hydroxyphenyl)sulfonyl)-2-(2-(4-methyl-1-piperidinyl)ethyl)pyrrolidine, reference compound]",effect on 5-CT-induced cAMP accumulation,5-HT7R,dose-dependently decrease
